Source: patent US10828316B2, “Method of treating bacterial infections” (priority 2016, dated 2020)
Converted amounts (≈) assume the structure as drawn. Where two headings read alike, the source gives them in different places.

Key:
K. pneumoniae EN0262 = settings: commercial antibiotics, data provided by IMBIM, BMC, Uppsala University; cited from earlier work
S. flexneri APV00906 = assay: MIC; assay type: cell-based; settings: for MIC: Shigella flexneri
S. sonnei APV00908 = assay: MIC; assay type: cell-based; settings: for MIC: Shigella sonnei
S. flexneri APV00907 = assay: MIC; assay type: cell-based; settings: for MIC: Shigella flexneri
S. aureus strain no 13 = assay: MIC; settings: S. aureus strain 13, trimethoprim 2 μg/ml
E. coli EN001 = assay: MIC; assay type: cell-based, Escherichia coli; settings: in didanosine+trimethoprim+uridine combination
K. pneumoniae EN011 = assay: MIC; assay type: cell-based, Klebsiella pneumoniae; settings: Klebsiella pneumoniae, EN011, K. pneumoniae EN011; in didanosine+trimethoprim+uridine combination
E. coli strain no 2 = assay: MIC; settings: Escherichia coli, NO2, read-out: MIC Didanosine, E. coli strain 2
P. aeruginosa EN0004 = assay: MIC; assay type: cell-based; settings: in didanosine+trimethoprim+uridine combination
E. coli EN013 = assay: MIC; assay type: cell-based, Escherichia coli; settings: Escherichia coli, EN013, E. coli EN013; in didanosine+trimethoprim+uridine combination
K. pneumoniae EN0006 = assay: MIC; assay type: cell-based; settings: in didanosine+trimethoprim+uridine combination
P. aeruginosa EN015 = assay: MIC; assay type: cell-based, Pseudomonas aeruginosa; settings: Pseudomonas aeruginosa, EN015, P. aeruginosa EN015; in didanosine+trimethoprim+uridine combination
E. coli EN0001 = assay: MIC; assay type: cell-based; settings: in didanosine+trimethoprim+uridine combination
A. baumannii EN0007 = assay: MIC; assay type: cell-based, A. baumanii; settings: in didanosine+trimethoprim+uridine combination
[1] = S. flexneri APV00906, read-out: Antibiogram MIC
[2] = S. sonnei APV00908, read-out: Antibiogram MIC
[3] = S. flexneri APV00907, read-out: Antibiogram MIC

CN(C)c1cc(NC(=O)CNC(C)(C)C)c(O)c2c1C[C@H]1C[C@H]3[C@H](N(C)C)C(O)=C(C(N)=O)C(=O)[C@@]3(O)C(O)=C1C2=O [tigecycline]
MIC (K. pneumoniae EN0262): 2 µg/mL (≈ 3.41 µM) | MIC (S. flexneri APV00906; [1]): ≤ 0.5 µg/mL | MIC (S. sonnei APV00908; [2]): ≤ 0.5 µg/mL | MIC (S. flexneri APV00907; [3]): ≤ 0.5 µg/mL

NCC[C@H](O)C(=O)N[C@@H]1C[C@H](N)[C@@H](O[C@H]2O[C@H](CN)[C@@H](O)[C@H](O)[C@H]2O)[C@H](O)[C@H]1O[C@H]1O[C@H](CO)[C@@H](O)[C@H](N)[C@H]1O [amikacin]
MIC (K. pneumoniae EN0262): 8 µg/mL (≈ 13.7 µM) | Antibiogram category (S, I, R, R*) (S. flexneri APV00906; S. flexneri APV00906): R* | MIC (S. flexneri APV00906; [1]): 16 µg/mL (≈ 27.3 µM) | Antibiogram category (S, I, R, R*) (S. sonnei APV00908; S. sonnei APV00908): R* | MIC (S. sonnei APV00908; [2]): 4 µg/mL (≈ 6.83 µM) | Antibiogram category (S, I, R, R*) (S. flexneri APV00907; S. flexneri APV00907): R* | MIC (S. flexneri APV00907; [3]): 4 µg/mL (≈ 6.83 µM)

CO/N=C(\C(=O)N[C@@H]1C(=O)N2C(C(=O)O)=C(COC(C)=O)CS[C@H]12)c1csc(N)n1 [cefotaxime]
MIC (K. pneumoniae EN0262): >32 µg/mL | MIC (S. flexneri APV00906; APV00906, read-out: Antibiogram MIC): ≥ 64 µg/mL | MIC (S. sonnei APV00908; APV00908, read-out: Antibiogram MIC): ≤ 1 µg/mL | MIC (S. flexneri APV00907; APV00907, read-out: Antibiogram MIC): ≤ 1 µg/mL

CCN1CCN(C(=O)N[C@@H](C(=O)N[C@@H]2C(=O)N3[C@@H]2SC(C)(C)[C@@H]3C(=O)O)c2ccccc2)C(=O)C1=O [piperacillin]
MIC (K. pneumoniae EN0262): >256 µg/mL

colistin
MIC (K. pneumoniae EN0262): 1 µg/mL

O=c1[nH]c(=O)n([C@H]2C[C@H](O)[C@@H](CO)O2)cc1Br [BrdUrd]
MIC BrdUrd (S. aureus strain no 13; uridine 10 μg/ml): ≤2 µg/mL | MIC BrdUrd (S. aureus strain no 13; uridine 100 μg/ml): ≤2 µg/mL

O=c1[nH]cnc2c1ncn2[C@H]1CC[C@@H](CO)O1 [Didanosine, didanosine]
MIC (E. coli EN001): 0.125 µg/mL | MIC (K. pneumoniae EN011): 0.125 µg/mL | MIC (E. coli strain no 2; trimethoprim 0, uridine 0 μg/ml): > 30 µg/mL | MIC (E. coli strain no 2; trimethoprim 0, uridine 10 μg/ml): > 30 µg/mL | MIC (E. coli strain no 2; trimethoprim 0, uridine 100 μg/ml): > 30 µg/mL | MIC (E. coli strain no 2; trimethoprim 1 μg/ml, uridine 0 μg/ml): > 2.5 µg/mL | MIC (E. coli strain no 2; trimethoprim 1 μg/ml, uridine 10 μg/ml): > 2.5 µg/mL | MIC (E. coli strain no 2; trimethoprim 2 μg/ml, uridine 0 μg/ml): > 2.5 µg/mL | MIC (E. coli strain no 2; trimethoprim 2 μg/ml, uridine 10 μg/ml): > 2.5 µg/mL | MIC (P. aeruginosa EN0004): >4 µg/mL | MIC (E. coli EN013): 0.016 µg/mL | MIC (K. pneumoniae EN0006): 0.5 µg/mL | MIC (P. aeruginosa EN015): 1 µg/mL | MIC (E. coli EN0001): 0.25 µg/mL | MIC (A. baumannii EN0007): >4 µg/mL

perfloxacin
MIC (K. pneumoniae EN0262): >16 µg/mL

gentamicin
MIC (K. pneumoniae EN0262): 1 µg/mL | Antibiogram MIC (S. flexneri APV00906; S. flexneri APV00906): 4 µg/mL | Antibiogram category (S, I, R, R*) (S. flexneri APV00906; S. flexneri APV00906): R* | Antibiogram MIC (S. sonnei APV00908; S. sonnei APV00908): ≤ 1 µg/mL | Antibiogram category (S, I, R, R*) (S. sonnei APV00908; S. sonnei APV00908): R* | Antibiogram MIC (S. flexneri APV00907; S. flexneri APV00907): ≤ 1 µg/mL | Antibiogram category (S, I, R, R*) (S. flexneri APV00907; S. flexneri APV00907): R*
